ChEMBL document CHEMBL4507291 (2021)

Legend:
[1] = target: Casein kinase I isoform gamma-2 (Homo sapiens) (UniProt P78368)
[2] = target: T1, Ephrin type-B receptor 1 (Homo sapiens) (UniProt P54762)
T1 sequence (whole entry): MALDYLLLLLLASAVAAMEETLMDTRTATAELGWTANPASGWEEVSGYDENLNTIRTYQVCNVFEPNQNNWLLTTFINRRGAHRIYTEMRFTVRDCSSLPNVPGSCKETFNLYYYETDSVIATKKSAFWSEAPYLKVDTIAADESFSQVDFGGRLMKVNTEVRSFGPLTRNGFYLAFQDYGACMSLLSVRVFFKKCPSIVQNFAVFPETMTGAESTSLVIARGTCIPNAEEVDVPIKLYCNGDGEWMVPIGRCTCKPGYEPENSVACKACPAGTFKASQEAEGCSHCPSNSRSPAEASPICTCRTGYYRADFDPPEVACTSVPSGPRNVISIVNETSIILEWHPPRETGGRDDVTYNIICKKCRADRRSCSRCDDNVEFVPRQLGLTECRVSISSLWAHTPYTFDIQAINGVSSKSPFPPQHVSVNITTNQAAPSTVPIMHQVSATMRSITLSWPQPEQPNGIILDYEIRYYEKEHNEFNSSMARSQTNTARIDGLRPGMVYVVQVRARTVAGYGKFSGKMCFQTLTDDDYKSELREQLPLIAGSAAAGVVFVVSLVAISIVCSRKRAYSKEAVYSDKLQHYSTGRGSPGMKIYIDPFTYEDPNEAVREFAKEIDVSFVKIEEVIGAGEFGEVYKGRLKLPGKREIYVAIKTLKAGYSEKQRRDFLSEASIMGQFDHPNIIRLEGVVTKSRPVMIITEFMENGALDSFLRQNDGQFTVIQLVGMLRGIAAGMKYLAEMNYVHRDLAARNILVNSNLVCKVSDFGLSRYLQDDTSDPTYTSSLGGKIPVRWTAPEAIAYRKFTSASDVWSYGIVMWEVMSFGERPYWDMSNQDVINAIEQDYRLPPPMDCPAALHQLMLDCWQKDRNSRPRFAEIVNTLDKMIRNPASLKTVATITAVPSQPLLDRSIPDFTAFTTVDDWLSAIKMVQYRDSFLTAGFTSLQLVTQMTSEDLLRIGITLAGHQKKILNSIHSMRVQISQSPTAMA

[3] = target: Receptor tyrosine-protein kinase erbB-4 (Homo sapiens) (UniProt Q15303)
[4] = tested on: T2, Receptor-type tyrosine-protein kinase FLT3 (Homo sapiens), P36888 [D835Y]
T2 sequence (whole entry): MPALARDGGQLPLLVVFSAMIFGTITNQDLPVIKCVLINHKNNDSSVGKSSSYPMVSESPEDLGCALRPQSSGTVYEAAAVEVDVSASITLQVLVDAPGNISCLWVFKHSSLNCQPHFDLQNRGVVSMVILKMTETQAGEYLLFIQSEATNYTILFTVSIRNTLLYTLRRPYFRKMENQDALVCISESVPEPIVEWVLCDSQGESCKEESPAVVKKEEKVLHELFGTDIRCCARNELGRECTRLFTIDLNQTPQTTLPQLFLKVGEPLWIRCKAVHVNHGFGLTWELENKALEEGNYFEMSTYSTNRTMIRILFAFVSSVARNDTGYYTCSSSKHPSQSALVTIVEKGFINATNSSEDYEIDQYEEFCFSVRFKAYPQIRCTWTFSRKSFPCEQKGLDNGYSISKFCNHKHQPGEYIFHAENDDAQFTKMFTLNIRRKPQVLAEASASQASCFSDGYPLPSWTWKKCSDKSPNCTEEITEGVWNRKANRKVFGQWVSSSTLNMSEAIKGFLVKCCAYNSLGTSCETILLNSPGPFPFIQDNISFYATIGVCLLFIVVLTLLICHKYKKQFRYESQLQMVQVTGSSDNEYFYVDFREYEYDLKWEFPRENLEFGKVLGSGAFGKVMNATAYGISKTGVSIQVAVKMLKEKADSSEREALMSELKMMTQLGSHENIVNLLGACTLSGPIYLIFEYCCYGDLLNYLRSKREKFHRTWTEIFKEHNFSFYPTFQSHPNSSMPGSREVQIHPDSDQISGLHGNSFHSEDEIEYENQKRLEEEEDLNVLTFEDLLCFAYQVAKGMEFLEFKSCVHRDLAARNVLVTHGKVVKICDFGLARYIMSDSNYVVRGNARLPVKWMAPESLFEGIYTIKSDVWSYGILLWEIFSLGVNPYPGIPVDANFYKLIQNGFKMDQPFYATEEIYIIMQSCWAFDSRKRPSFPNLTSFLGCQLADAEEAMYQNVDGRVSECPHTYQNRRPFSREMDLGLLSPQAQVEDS

[5] = target: Mast/stem cell growth factor receptor Kit (Homo sapiens) (UniProt P10721)
[6] = target: Dual specificity mitogen-activated protein kinase kinase 1 (Homo sapiens) (UniProt Q02750)
[7] = target: Proto-oncogene tyrosine-protein kinase ROS (Homo sapiens) (UniProt P08922)
[8] = target: Ribosomal protein S6 kinase alpha-3 (Homo sapiens) (UniProt P51812)
[9] = target: SRSF protein kinase 2 (Homo sapiens) (UniProt P78362)
[10] = target: Serine/threonine-protein kinase tousled-like 2 (Homo sapiens) (UniProt Q86UE8)
[11] = target: Tyrosine-protein kinase Yes (Homo sapiens) (UniProt P07947)
[12] = target: T3, Alpha-2B adrenergic receptor (Homo sapiens) (UniProt P18089); conditions: Compound concentration 10.0 uM
T3 sequence (whole entry): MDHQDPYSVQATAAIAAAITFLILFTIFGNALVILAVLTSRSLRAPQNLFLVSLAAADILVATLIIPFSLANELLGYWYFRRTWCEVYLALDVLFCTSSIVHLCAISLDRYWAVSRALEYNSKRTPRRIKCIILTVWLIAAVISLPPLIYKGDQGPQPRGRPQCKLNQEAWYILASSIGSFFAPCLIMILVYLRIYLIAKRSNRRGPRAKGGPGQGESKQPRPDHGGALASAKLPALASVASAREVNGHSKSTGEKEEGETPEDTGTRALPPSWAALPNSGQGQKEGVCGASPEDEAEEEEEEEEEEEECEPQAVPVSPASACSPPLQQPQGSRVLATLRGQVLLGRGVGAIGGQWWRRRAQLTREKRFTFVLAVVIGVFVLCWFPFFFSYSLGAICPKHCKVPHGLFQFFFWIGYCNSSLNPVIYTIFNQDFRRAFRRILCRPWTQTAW

[13] = Compound concentration 1000.0 nM
[14] = Compound concentration 100.0 nM

Chain of Receptor tyrosine-protein kinase erbB-4 (Homo sapiens) (Q15303 whole entry): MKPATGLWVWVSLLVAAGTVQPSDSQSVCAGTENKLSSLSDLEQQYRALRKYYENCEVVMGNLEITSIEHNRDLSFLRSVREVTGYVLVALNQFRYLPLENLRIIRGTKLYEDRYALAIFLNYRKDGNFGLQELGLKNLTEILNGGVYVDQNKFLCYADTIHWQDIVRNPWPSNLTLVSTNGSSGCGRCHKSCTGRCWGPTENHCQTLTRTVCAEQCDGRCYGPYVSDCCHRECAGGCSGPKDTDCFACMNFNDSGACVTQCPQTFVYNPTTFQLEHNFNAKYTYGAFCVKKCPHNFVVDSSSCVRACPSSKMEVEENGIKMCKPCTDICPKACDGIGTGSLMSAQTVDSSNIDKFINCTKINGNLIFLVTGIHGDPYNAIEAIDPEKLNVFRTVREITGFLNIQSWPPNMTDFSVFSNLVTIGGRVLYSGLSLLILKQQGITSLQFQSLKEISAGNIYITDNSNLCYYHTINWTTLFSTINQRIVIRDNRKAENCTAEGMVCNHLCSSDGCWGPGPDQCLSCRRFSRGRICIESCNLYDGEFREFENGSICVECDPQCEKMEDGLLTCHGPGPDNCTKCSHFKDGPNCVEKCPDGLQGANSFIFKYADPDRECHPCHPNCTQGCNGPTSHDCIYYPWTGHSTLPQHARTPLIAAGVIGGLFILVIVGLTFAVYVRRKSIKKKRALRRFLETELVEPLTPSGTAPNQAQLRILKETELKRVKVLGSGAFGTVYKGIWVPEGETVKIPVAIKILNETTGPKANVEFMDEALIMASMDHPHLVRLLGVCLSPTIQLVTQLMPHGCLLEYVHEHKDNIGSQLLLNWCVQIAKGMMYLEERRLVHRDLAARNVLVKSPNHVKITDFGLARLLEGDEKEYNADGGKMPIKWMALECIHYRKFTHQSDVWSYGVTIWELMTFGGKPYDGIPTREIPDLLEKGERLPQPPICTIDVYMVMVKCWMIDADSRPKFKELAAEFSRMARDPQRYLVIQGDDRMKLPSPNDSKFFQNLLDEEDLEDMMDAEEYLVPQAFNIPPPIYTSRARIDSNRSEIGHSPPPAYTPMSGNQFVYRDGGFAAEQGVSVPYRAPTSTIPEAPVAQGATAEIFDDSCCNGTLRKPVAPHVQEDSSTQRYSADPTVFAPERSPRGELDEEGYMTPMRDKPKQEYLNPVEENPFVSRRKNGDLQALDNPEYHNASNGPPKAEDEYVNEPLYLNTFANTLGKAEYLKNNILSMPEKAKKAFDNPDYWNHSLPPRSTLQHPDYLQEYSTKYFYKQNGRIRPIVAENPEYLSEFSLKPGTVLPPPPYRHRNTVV
Chain of Serine/threonine-protein kinase tousled-like 2 (Homo sapiens) (Q86UE8 whole entry, looked up): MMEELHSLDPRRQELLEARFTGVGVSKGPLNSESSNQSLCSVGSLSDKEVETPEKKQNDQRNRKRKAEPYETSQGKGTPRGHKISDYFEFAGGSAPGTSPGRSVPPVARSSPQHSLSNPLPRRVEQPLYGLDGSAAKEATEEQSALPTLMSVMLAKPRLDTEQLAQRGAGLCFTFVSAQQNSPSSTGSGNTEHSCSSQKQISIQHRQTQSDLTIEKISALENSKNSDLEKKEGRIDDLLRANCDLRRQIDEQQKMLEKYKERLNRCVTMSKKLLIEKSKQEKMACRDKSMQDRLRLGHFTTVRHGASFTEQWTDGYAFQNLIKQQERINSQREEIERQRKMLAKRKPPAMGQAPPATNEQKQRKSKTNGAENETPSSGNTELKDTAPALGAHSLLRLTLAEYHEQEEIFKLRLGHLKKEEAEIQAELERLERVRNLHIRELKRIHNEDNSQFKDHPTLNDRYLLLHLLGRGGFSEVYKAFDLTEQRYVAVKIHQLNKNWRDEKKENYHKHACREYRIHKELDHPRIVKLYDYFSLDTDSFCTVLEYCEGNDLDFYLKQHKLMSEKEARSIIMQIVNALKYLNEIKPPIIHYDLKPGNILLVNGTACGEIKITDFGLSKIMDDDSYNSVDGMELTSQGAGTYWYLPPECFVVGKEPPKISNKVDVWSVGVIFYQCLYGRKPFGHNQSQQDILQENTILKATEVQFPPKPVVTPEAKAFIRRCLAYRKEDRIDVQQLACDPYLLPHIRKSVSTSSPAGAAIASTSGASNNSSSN
Chain of Tyrosine-protein kinase Yes (Homo sapiens) (P07947 2-543 limits assumed): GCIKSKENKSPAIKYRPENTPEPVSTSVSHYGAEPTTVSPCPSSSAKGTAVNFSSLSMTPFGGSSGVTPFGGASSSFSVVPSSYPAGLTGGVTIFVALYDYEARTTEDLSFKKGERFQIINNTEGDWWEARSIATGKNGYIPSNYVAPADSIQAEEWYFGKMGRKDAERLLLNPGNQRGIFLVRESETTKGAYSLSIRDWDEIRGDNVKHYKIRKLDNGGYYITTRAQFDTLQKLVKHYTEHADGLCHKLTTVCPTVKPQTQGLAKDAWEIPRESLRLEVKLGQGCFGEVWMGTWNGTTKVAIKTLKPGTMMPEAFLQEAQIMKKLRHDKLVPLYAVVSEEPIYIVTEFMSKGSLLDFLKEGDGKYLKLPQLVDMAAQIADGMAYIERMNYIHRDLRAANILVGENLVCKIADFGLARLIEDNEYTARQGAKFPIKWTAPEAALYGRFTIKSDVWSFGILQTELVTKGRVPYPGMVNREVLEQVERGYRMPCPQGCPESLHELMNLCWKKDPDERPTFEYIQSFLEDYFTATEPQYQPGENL
Chain of Ribosomal protein S6 kinase alpha-3 (Homo sapiens) (P51812 whole entry): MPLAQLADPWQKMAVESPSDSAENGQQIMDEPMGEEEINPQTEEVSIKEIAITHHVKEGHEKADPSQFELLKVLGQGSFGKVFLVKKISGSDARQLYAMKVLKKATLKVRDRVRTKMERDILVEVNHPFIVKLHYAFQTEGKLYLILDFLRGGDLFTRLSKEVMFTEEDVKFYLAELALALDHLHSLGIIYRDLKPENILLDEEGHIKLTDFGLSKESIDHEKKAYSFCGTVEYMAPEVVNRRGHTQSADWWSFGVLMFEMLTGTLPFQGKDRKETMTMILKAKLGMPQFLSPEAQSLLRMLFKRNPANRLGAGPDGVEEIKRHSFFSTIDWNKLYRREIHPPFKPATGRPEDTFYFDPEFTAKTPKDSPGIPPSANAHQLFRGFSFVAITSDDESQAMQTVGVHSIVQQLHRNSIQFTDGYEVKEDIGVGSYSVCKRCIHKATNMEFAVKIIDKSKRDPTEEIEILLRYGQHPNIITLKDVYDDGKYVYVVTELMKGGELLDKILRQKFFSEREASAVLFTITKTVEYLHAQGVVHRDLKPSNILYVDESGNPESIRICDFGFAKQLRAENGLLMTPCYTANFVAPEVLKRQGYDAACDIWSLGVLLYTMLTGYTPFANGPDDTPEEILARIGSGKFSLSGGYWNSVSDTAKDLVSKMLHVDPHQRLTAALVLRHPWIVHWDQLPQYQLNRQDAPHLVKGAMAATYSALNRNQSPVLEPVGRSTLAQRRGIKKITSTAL
Chain of Dual specificity mitogen-activated protein kinase kinase 1 (Homo sapiens) (Q02750 whole entry): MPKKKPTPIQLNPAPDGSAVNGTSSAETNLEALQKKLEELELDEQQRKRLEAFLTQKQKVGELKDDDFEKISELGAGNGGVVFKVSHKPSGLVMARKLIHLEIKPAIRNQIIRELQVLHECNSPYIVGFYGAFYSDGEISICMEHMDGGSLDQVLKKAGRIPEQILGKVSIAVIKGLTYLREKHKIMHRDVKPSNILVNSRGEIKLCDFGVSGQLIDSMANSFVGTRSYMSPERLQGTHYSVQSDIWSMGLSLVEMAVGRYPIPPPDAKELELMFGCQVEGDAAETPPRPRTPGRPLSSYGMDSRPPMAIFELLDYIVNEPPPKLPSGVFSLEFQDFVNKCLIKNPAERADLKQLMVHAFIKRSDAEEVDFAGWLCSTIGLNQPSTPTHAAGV
Chain of Casein kinase I isoform gamma-2 (Homo sapiens) (P78368 whole entry, looked up, canonical isoform): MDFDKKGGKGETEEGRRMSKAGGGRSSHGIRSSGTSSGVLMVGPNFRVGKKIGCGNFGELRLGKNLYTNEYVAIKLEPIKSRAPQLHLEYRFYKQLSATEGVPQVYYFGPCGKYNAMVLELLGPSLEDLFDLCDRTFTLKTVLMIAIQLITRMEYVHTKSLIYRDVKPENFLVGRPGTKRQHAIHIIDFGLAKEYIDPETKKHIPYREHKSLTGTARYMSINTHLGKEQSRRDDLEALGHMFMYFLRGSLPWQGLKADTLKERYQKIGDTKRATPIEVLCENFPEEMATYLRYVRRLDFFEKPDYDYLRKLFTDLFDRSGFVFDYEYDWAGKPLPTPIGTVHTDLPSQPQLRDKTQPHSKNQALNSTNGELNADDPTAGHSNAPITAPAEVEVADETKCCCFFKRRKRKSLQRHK
Chain of SRSF protein kinase 2 (Homo sapiens) (P78362 whole entry, looked up): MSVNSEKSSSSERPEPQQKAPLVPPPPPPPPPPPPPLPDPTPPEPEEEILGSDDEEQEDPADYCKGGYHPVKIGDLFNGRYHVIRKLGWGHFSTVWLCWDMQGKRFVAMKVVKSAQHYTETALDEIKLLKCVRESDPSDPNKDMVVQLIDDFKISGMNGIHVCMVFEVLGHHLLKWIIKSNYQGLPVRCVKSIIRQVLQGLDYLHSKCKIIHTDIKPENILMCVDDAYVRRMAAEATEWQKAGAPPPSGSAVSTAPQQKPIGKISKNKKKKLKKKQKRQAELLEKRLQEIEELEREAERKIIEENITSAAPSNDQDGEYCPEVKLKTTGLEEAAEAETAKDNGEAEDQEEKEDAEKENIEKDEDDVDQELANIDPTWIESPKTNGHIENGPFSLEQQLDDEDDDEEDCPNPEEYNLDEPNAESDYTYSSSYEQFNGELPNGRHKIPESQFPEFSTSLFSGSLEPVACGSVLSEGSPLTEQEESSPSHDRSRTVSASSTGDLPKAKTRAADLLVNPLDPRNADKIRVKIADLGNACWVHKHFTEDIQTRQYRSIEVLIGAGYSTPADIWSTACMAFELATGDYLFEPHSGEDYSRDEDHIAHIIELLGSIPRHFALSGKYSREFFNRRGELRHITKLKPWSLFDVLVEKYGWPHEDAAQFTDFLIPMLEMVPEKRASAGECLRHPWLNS

C[C@@H]1CN(c2cc(-c3nn(C)c4ccc(OC5(C)CC5)cc34)ncn2)C[C@H](C)O1 [MLi-2-NC]
inactive: residual activity [1, 13] 100% | residual activity [2, 13] 99% | residual activity [3, 13] 96% | residual activity [4, 13] 100% | residual activity [5, 13] 97% | residual activity [6, 13] 74% | residual activity [7, 13] 100% | residual activity [8, 13] 82% | residual activity [9, 13] 88% | residual activity [10, 13] 97% | residual activity [11, 13] 98% | inhibition [12] 27.2%

C[C@@H]1CN(c2cc(-c3n[nH]c4ccc(OC5(C)CC5)cc34)ncn2)C[C@H](C)O1 [MLi-2]
inactive: residual activity [1, 14] 100% | residual activity [2, 14] 83% | residual activity [3, 14] 90% | residual activity [4, 14] 100% | residual activity [5, 14] 70% | residual activity [6, 14] 88% | residual activity [7, 14] 100% | residual activity [8, 14] 73% | residual activity [9, 14] 79% | residual activity [10, 14] 100% | residual activity [11, 14] 80% | inhibition [12] 6.1%
